# Measured values reported in patent US10913727B2, “Modulators of the integrated stress pathway” (Calico Life Sciences LLC, priority 2016, dated 2021).
# System: HEK293T cells carrying the ATF4 luciferase reporter
# Assay: ATF4-Luc assay, in vitro model of Vanishing Cell White Matter Disease (VWMD)
# Assay type: cell-based
# Details: Homo sapiens, HEK-293T, 1 μg/mL tunicamycin, 7 hours, One Glo luminescence
# Method in brief: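 Stable HEK293T line with human ATF4 5′-UTR–firefly luciferase reporter treated with 1 μg/mL tunicamycin plus 200 nM compound for 7 h. Luminescence read; EC50 derived.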
row,Compound,EC50 [nM]
1,"CCc1ocnc1C(=O)NC12CC(NC(=O)COc3ccc(Cl)c(F)c3)(C1)C2 [Compound 859, N-{3-[2-(4-chloro-3-fluorophenoxy)acetamido]bicyclo[1.1.1]pentan-1-yl}-5-ethyl-1,3-oxazole-4-carboxamide]",> 2000
2,"Cc1cc(C(=O)NC23CC(NC(=O)COc4ccc(Cl)c(Cl)c4)(C2)C3)on1 [Compound 431, N-{3-[2-(3,4-dichlorophenoxy)acetamido]bicyclo[1.1.1]pentan-1-yl}-3-methyl-1,2-oxazole-5-carboxamide]",50 to 250
3,"CC(C)(O)CCc1ccnc(C(=O)NC23CC(NC(=O)COc4ccc(Cl)c(F)c4)(C2)C3)c1 [Compound 432, N-{3-[2-(4-chloro-3-fluorophenoxy)acetamido]bicyclo[1.1.1]pentan-1-yl}-4-(3-hydroxy-3-methylbutyl)pyridine-2-carboxamide]",> 2000
4,"Cc1cc(C(=O)NC23CC(NC(=O)COc4ccc5c(c4)OC(F)(F)O5)(C2)C3)on1 [Compound 377, N-(3-{2-[(2,2-difluoro-2H-1,3-benzodioxol-5-yl)oxy]acetamido}bicyclo[1.1.1]pentan-1-yl)-3-methyl-1,2-oxazole-5-carboxamide]",250 to 1000
5,"O=C(COc1ccc(Cl)c(F)c1)NC12CC(NC(=O)c3ccc4[nH]c(=O)[nH]c4n3)(C1)C2 [Compound 205, N-{3-[2-(4-chloro-3-fluorophenoxy)acetamido]bicyclo[1.1.1]pentan-1-yl}-2-oxo-2,3-dihydro-1H-imidazo[4,5-b]pyridine-5-carboxamide]",> 2000
6,"Cc1onc(-c2ccccn2)c1C(=O)NC12CC(NC(=O)COc3ccc(Cl)c(F)c3)(C1)C2 [Compound 804, N-{3-[2-(4-chloro-3-fluorophenoxy)acetamido]bicyclo[1.1.1]pentan-1-yl}-5-methyl-3-(pyridin-2-yl)-1,2-oxazole-4-carboxamide]",> 2000
7,"CCCCc1ccc(C(=O)NC23CC(NC(=O)COc4ccc(Cl)c(F)c4)(C2)C3)nc1 [Compound 135, 5-butyl-N-{3-[2-(4-chloro-3-fluorophenoxy)acetamido]bicyclo[1.1.1]pentan-1-yl}pyridine-2-carboxamide]",50 to 250
8,"CC(O)c1ncc(C(=O)NC23CC(NC(=O)COc4ccc(Cl)c(F)c4)(C2)C3)s1 (stereo not drawn) [Compound 476, N-{3-[2-(4-chloro-3-fluorophenoxy)acetamido]bicyclo[1.1.1]pentan-1-yl}-2-(1-hydroxyethyl)-1,3-thiazole-5-carboxamide]",250 to 1000
9,"O=C(COc1ccc(Cl)c(F)c1)NC12CCC(NC(=O)c3ccncn3)(CC1)C(O)C2 (stereo not drawn) [Compound 226, N-{4-[2-(4-chloro-3-fluorophenoxy)acetamido]-2-hydroxybicyclo[2.2.2]octan-1-yl}pyrimidine-4-carboxamide]",250 to 1000
10,"CCOC(=O)c1ccnc(C(=O)NC23CC(NC(=O)COc4ccc(Cl)c(F)c4)(C2)C3)c1 [Compound 204, ethyl 2-({3-[2-(4-chloro-3-fluorophenoxy)acetamido]bicyclo[1.1.1]pentan-1-yl}carbamoyl)pyridine-4-carboxylate]",50 to 250
11,"O=C(COc1ccc(Cl)c(Cl)c1)NC12CC(NC(=O)c3cc(CO)ccn3)(C1)C2 [Compound 166, N-{3-[2-(3,4-dichlorophenoxy)acetamido]bicyclo[1.1.1]pentan-1-yl}-4-(hydroxymethyl)pyridine-2-carboxamide]",50 to 250
12,"O=C(COc1ccc(Cl)c(F)c1)NC12CCC(NC(=O)c3cnc(C(F)F)cn3)(CC1)CC2O (stereo not drawn) [Compound 229, N-{4-[2-(4-chloro-3-fluorophenoxy)acetamido]-3-hydroxybicyclo[2.2.2]octan-1-yl}-5-(difluoromethyl)pyrazine-2-carboxamide]",50 to 250
13,"CC(C)c1cccc(C(=O)NC23CCC(NC(=O)COc4ccc(Cl)c(F)c4)(CC2)C(O)C3)n1 (stereo not drawn) [Compound 911, N-{4-[2-(4-chloro-3-fluorophenoxy)acetamido]-3-hydroxybicyclo[2.2.2]octan-1-yl}-6-(propan-2-yl)pyridine-2-carboxamide]",250 to 1000
14,"O=C(COc1ccc(Cl)c(F)c1)NC12CC(Nc3nccc(-c4cnn(C(F)F)c4)n3)(C1)C2 [Compound 382, 2-(4-chloro-3-fluorophenoxy)-N-[3-({4-[1-(difluoromethyl)-1H-pyrazol-4-yl]pyrimidin-2-yl}amino)bicyclo[1.1.1]pentan-1-yl]acetamide]",> 2000
15,"O=C(COc1ccc(Cl)c(F)c1)NC12CC(Nc3c(Cl)cnn(CC(F)(F)F)c3=O)(C1)C2 [Compound 417, 2-(4-chloro-3-fluorophenoxy)-N-(3-{[5-chloro-3-oxo-2-(2,2,2-trifluoroethyl)-2,3-dihydropyridazin-4-yl]amino}bicyclo[1.1.1]pentan-1-yl)acetamide]",250 to 1000
16,"O=C(COc1ccc(Cl)c(F)c1)NC12CCC(NC(=O)c3cc(F)ccn3)(CC1)CC2O (stereo not drawn) [Compound 936, N-{4-[2-(4-chloro-3-fluorophenoxy)acetamido]-3-hydroxybicyclo[2.2.2]octan-1-yl}-4-fluoropyridine-2-carboxamide]",50 to 250
17,"Cc1nnc(C(=O)NC23CCC(NC(=O)COc4ccc(Cl)c(F)c4)(CC2)C(O)C3)o1 (stereo not drawn) [Compound 516, N-{4-[2-(4-chloro-3-fluorophenoxy)acetamido]-3-hydroxybicyclo[2.2.2]octan-1-yl}-5-methyl-1,3,4-oxadiazole-2-carboxamide]",1000 to 2000

row,Compound,EC50 [nM]
1,"Cc1cc2c(NC34CC(NC(=O)COc5cccc(F)c5)(C3)C4)nccn2n1 [Compound 640, 2-(3-fluorophenoxy)-N-{3-[(2-methylpyrazolo[1,5-a]pyrazin-4-yl)amino]bicyclo[1.1.1]pentan-1-yl}acetamide]",250 to 1000
2,"Cn1nc(C(=O)NC23CCC(NC(=O)COc4ccc(Cl)c(F)c4)(CC2)C(O)C3)cc1C(F)(F)F (stereo not drawn) [Compound 565, N-{4-[2-(4-chloro-3-fluorophenoxy)acetamido]-3-hydroxybicyclo[2.2.2]octan-1-yl}-1-methyl-5-(trifluoromethyl)-1H-pyrazole-3-carboxamide]",50 to 250
3,"O=C1COc2cc(C(=O)NC34CC(NC(=O)COc5ccc(Cl)c(F)c5)(C3)C4)ccc2N1 [Compound 794, N-{3-[2-(4-chloro-3-fluorophenoxy)acetamido]bicyclo[1.1.1]pentan-1-yl}-3-oxo-3,4-dihydro-2H-1,4-benzoxazine-7-carboxamide]",> 2000
4,"O=C(COc1ccc(Cl)c(Cl)c1)NC12CC(NC(=O)c3ccc(Cl)c(F)c3)(C1)C2 [Compound 685, 4-chloro-N-{3-[2-(3,4-dichlorophenoxy)acetamido]bicyclo[1.1.1]pentan-1-yl}-3-fluorobenzamide]",< 50
5,"Cc1cc(C(=O)NC23CC(NC(=O)COc4ccc(Cl)c(Cl)c4)(C2)C3)n(C)n1 [Compound 441, N-{3-[2-(3,4-dichlorophenoxy)acetamido]bicyclo[1.1.1]pentan-1-yl}-1,3-dimethyl-1H-pyrazole-5-carboxamide]",< 50
6,"Cc1cc(C(=O)NC23CC(NC(=O)COc4ccc(Cl)c(F)c4)(C2)C3)ns1 [Compound 677, N-{3-[2-(4-chloro-3-fluorophenoxy)acetamido]bicyclo[1.1.1]pentan-1-yl}-5-methyl-1,2-thiazole-3-carboxamide]",250 to 1000
7,"Cc1cc(C(=O)NC23CCC(NC(=O)COc4ccc(Cl)c(F)c4)(CC2)C(O)C3)no1 (stereo not drawn) [Compound 272, N-{4-[2-(4-chloro-3-fluorophenoxy)acetamido]-3-hydroxybicyclo[2.2.2]octan-1-yl}-5-methyl-1,2-oxazole-3-carboxamide]",50 to 250
8,"O=C(COc1ccc(F)c(F)c1)NC12CC(Nc3cnc(-c4cccnc4)cn3)(C1)C2 [Compound 731, 2-(3,4-difluorophenoxy)-N-(3-{[5-(pyridin-3-yl)pyrazin-2-yl]amino}bicyclo[1.1.1]pentan-1-yl)acetamide]",1000 to 2000
9,"O=C(COc1ccc(Cl)c(F)c1)NC12CC(NC(=O)c3cc4ccccn4n3)(C1)C2 [Compound 119, N-{3-[2-(4-chloro-3-fluorophenoxy)acetamido]bicyclo[1.1.1]pentan-1-yl}pyrazolo[1,5-a]pyridine-2-carboxamide]",250 to 1000
10,"CCc1cnc(C(=O)NC23CC(NC(=O)COc4ccc(Cl)c(F)c4)(C2)C3)cn1 [Compound 708, N-{3-[2-(4-chloro-3-fluorophenoxy)acetamido]bicyclo[1.1.1]pentan-1-yl}-5-ethylpyrazine-2-carboxamide]",50 to 250
11,"CCc1cc(C(=O)NC23CC(NC(=O)COc4ccc(Cl)c(Cl)c4)(C2)C3)n(C)n1 [Compound 584, N-{3-[2-(3,4-dichlorophenoxy)acetamido]bicyclo[1.1.1]pentan-1-yl}-3-ethyl-1-methyl-1H-pyrazole-5-carboxamide]",< 50
12,"COc1cscc1C(=O)NC12CC(NC(=O)COc3ccc(Cl)c(F)c3)(C1)C2 [Compound 557, N-{3-[2-(4-chloro-3-fluorophenoxy)acetamido]bicyclo[1.1.1]pentan-1-yl}-4-methoxythiophene-3-carboxamide]",> 2000
13,"O=C(COc1ccc(Cl)c(F)c1)NC12CC(NC(=O)c3cncs3)(C1)C2 [Compound 309, N-{3-[2-(4-chloro-3-fluorophenoxy)acetamido]bicyclo[1.1.1]pentan-1-yl}-1,3-thiazole-5-carboxamide]",250 to 1000
14,"O=C(COc1ccc(Cl)c(F)c1)NC12CC(NC(=O)c3coc(C(F)(F)F)c3)(C1)C2 [Compound 544, N-{3-[2-(4-chloro-3-fluorophenoxy)acetamido]bicyclo[1.1.1]pentan-1-yl}-5-(trifluoromethyl)furan-3-carboxamide]",< 50
15,"Cc1ccnc(C(=O)NC23CC(NC(=O)COc4ccc(Cl)c(Cl)c4)(C2)C3)c1 [Compound 526, N-{3-[2-(3,4-dichlorophenoxy)acetamido]bicyclo[1.1.1]pentan-1-yl}-4-methylpyridine-2-carboxamide]",250 to 1000
16,"Cc1cc2ncc(C(=O)NC34CC(NC(=O)COc5ccc(Cl)c(F)c5)(C3)C4)cn2n1 [Compound 748, N-{3-[2-(4-chloro-3-fluorophenoxy)acetamido]bicyclo[1.1.1]pentan-1-yl}-2-methylpyrazolo[1,5-a]pyrimidine-6-carboxamide]",250 to 1000
